Columns and labels:
Assay type in all cases: functional
Mus musculus [1] = experiment: Mean day to death of mice at 0 mg/kg/day
Mus musculus [2] = experiment: Survival rate of mice infected with A/Turkey/Mass/76 XA/Beijing/32/92 (H6N2) virus at a dose of 0.1 mg/kg/day; 7/9 (7 survived out of 9 mice)
Mus musculus [3] = experiment: Survival rate of mice infected with A/Turkey/Mass/76 XA/Beijing/32/92 (H6N2) virus at a dose of 1.0 mg/kg/day; 9/9 (9 survived out of 9 mice)
Mus musculus [4] = experiment: Mean day to death of mice at 0.1 mg/kg/day
Mus musculus [5] = experiment: Survival rate of mice infected with A/Turkey/Mass/76 XA/Beijing/32/92 (H6N2) virus at a dose of 0 mg/kg/day; 1/9 (1 survived out of 9 mice)

CCC(CC)[C@H](NC(C)=O)[C@@H]1[C@H](O)[C@@H](C(=O)O)C[C@H]1NC(=N)N [PERAMIVIR ANHYDROUS]
Mean day (Mus musculus [1]): 8.8
Survival (Mus musculus [2]): <7
Survival (Mus musculus [3]): <9
Mean day (Mus musculus [4]): 9
Survival (Mus musculus [5]): 1

— ChEMBL document CHEMBL1133646 (J Med Chem, 2000)
